Strand notation (5' to 3'): a small letter for the sugar, then the base; units joined by * are phosphorothioate-linked, units joined directly phosphodiester-linked; [ ] holds rarer units or linkages, { } end groups; capitals alone tell only the bases. e = 2'-O-(2-methoxyethyl) (MOE); [5mC] = 5-methylcytosine
Test system: human ABCB11 mRNA
Test: ASO treatment of primary human hepatocytes (PHH), ABCB11 mRNA by RT-qPCR normalized to B2M
Format: cell-based
Settings: primary human hepatocytes, 5 μM ASO, normalized to untreated PHHs (UNT)
Method: Primary human hepatocytes (PHH) were thawed using Lonza Human Cryopreserved Hepatocyte Thawing Medium and plated in 96-well collagen-coated plates (5.5-6.0×10^4 cells per well). Four hours later, the media was replaced with sterile-filtered QualGro™ Hepatocyte Culture Medium (BioIVT) containing antibiotic supplement, 0.3 mg/ml Matrigel® matrix (Corning®), and ASO at the desired concentration (e.g., 1.25 μM, 2.5 μM, 5 μM, or 10 μM). After 72 hrs., cells were harvested by aspirating media, washing once with phosphate-buffered saline (PBS), and lysed with 150 μl of Buffer RLT lysis buffer (Qiagen®). Plates were frozen at-80° C. during cell lysis. After thawing, total RNA was isolated using the Qiagen RNEasy kit as instructed by manufacturer. cDNA (random-primed) was synthesized from 10 μl of RNA using the LifeTech High Capacity cDNA Reverse Transcription kit. 2 μl of cDNA was used for reverse transcription-quantitative PCR (RT-qPCR) analyses using standard Taqman” reagents from Applied Biosystems™ to measure ABCB11 and CYP7A1 gene expression. Gene expression data was normalized to the housekeeper gene, beta-2-microglobulin (B2M).
To assess the ability of ASOs targeting ABCB11 regRNAs to modulate the expression of human ABCB11, 195 ASOs targeting the human ABCB11 regRNAs were synthesized. These initial ASOs were screened in PHHs at 5 μM to determine their efficacy in increasing human ABCB11 mRNA using quantitative PCR. This initial screen identified 10 ASOs that induced increased expression of ABCB11 mRNA by more than 1.5-fold (as compared to untreated PHHs).

CO-4034 (antisense e[5mC]*eG*eA*eG*eG*eT*eT*eG*eG*eA*eA*eA*eA*eG*eG*eT*eT*eG*eT*eG)
ABCB11 mRNA FC (5 μM ASO vs. UNT): 0.792 fold change

CO-4035 (antisense eG*eT*eT*e[5mC]*eA*eG*eT*eG*e[5mC]*eT*eT*eT*eA*eG*eA*eA*eT*eG*eA*eT)
ABCB11 mRNA FC (5 μM ASO vs. UNT): 0.926 fold change

CO-4036 (antisense eG*e[5mC]*eA*eA*eA*eT*eA*eG*eA*eT*eA*eA*eT*eG*eT*eT*e[5mC]*eT*eT*eG)
ABCB11 mRNA FC (5 μM ASO vs. UNT): 1.235 fold change

CO-4037 (antisense eG*eG*eG*eA*e[5mC]*eA*eT*eT*eG*eA*eT*e[5mC]*e[5mC]*eT*eT*eA*eG*eG*e[5mC]*eA)
ABCB11 mRNA FC (5 μM ASO vs. UNT): 0.697 fold change

CO-4038 (antisense e[5mC]*eT*e[5mC]*eG*eT*eA*eT*eG*eT*e[5mC]*eA*e[5mC]*eT*eG*eA*eA*e[5mC]*eT*eG*eT)
ABCB11 mRNA FC (5 μM ASO vs. UNT): 1.701 fold change

CO-4039 (antisense eG*eG*eT*eT*eA*eT*eT*eG*e[5mC]*eT*e[5mC]*eT*eG*eA*eG*eT*eA*eT*eG*eT)
ABCB11 mRNA FC (5 μM ASO vs. UNT): 1.022 fold change

CO-4040 (antisense eG*eT*eT*eT*e[5mC]*e[5mC]*e[5mC]*eA*eA*eG*e[5mC]*eA*e[5mC]*eA*e[5mC]*eT*e[5mC]*eT*eG*eT)
ABCB11 mRNA FC (5 μM ASO vs. UNT): 0.921 fold change

CO-4041 (antisense eT*e[5mC]*e[5mC]*eA*eA*eG*eG*e[5mC]*e[5mC]*eT*eG*eT*eT*eG*eA*e[5mC]*eA*e[5mC]*e[5mC]*e[5mC])
ABCB11 mRNA FC (5 μM ASO vs. UNT): 0.963 fold change

CO-4042 (antisense e[5mC]*eT*e[5mC]*eT*e[5mC]*eG*eT*eT*e[5mC]*e[5mC]*eA*eA*eG*eG*eT*eG*eA*eA*eT*e[5mC])
ABCB11 mRNA FC (5 μM ASO vs. UNT): 0.605 fold change

CO-4043 (antisense eG*e[5mC]*e[5mC]*e[5mC]*eA*e[5mC]*eT*e[5mC]*eT*eG*e[5mC]*eT*e[5mC]*eA*eA*eT*eT*eT*eG*e[5mC])
ABCB11 mRNA FC (5 μM ASO vs. UNT): 1.934 fold change

CO-4044 (antisense eG*eT*eT*eG*eG*eG*eA*eT*eA*eG*e[5mC]*e[5mC]*eT*eG*eA*eA*eT*eT*e[5mC]*e[5mC])
ABCB11 mRNA FC (5 μM ASO vs. UNT): 0.974 fold change

CO-4045 (antisense eA*e[5mC]*eT*eT*eT*eT*e[5mC]*eA*e[5mC]*eA*eA*e[5mC]*eT*eA*e[5mC]*eA*eG*eG*e[5mC]*e[5mC])
ABCB11 mRNA FC (5 μM ASO vs. UNT): 0.815 fold change

CO-4046 (antisense eG*eG*eG*eAeA*eA*eG*eT*eT*eT*eA*eA*eA*eGeGeT*eA*eT*eT*eT)
ABCB11 mRNA FC (5 μM ASO vs. UNT): 1.035 fold change

CO-4047 (antisense eG*e[5mC]*eA*eA*eT*e[5mC]*eT*eT*eT*eT*eA*eT*eA*eT*eT*eG*eA*eG*eG*eG)
ABCB11 mRNA FC (5 μM ASO vs. UNT): 0.676 fold change

CO-4048 (antisense eA*eG*e[5mC]*eA*eT*e[5mC]*eT*eG*eG*eA*eT*e[5mC]*e[5mC]*eT*eG*e[5mC]*eA*eA*e[5mC]*e[5mC])
ABCB11 mRNA FC (5 μM ASO vs. UNT): 1.448 fold change

CO-4049 (antisense eG*eT*e[5mC]*eT*e[5mC]*e[5mC]*eA*e[5mC]*eA*eA*eA*eA*e[5mC]*eT*e[5mC]*eT*eA*eT*eA*eG)
ABCB11 mRNA FC (5 μM ASO vs. UNT): 0.889 fold change

CO-4050 (antisense e[5mC]*eA*eA*eA*eT*eG*eT*eT*e[5mC]*eT*eT*eT*eT*eA*eG*eG*eG*eT*eA*eT)
ABCB11 mRNA FC (5 μM ASO vs. UNT): 0.968 fold change

CO-4051 (antisense eG*eA*e[5mC]*eT*eT*eT*eT*eG*eA*eG*e[5mC]*eA*eA*eG*eG*e[5mC]*eT*eG*eT*eT)
ABCB11 mRNA FC (5 μM ASO vs. UNT): 0.908 fold change

CO-4052 (antisense e[5mC]*e[5mC]*eA*eG*eG*eG*eT*eG*e[5mC]*eA*eA*eG*eA*eG*eT*eT*eG*eT*e[5mC]*eT)
ABCB11 mRNA FC (5 μM ASO vs. UNT): 1.054 fold change

CO-4053 (antisense eG*eA*eG*e[5mC]*eT*eT*e[5mC]*eA*eT*e[5mC]*eT*eG*eG*eT*eG*eT*eG*eT*e[5mC]*e[5mC])
ABCB11 mRNA FC (5 μM ASO vs. UNT): 1.218 fold change

CO-4054 (antisense e[5mC]*eG*eT*eT*e[5mC]*eA*eT*e[5mC]*eT*eT*eT*eG*e[5mC]*eT*eT*eA*eT*eA*e[5mC]*eA)
ABCB11 mRNA FC (5 μM ASO vs. UNT): 1.269 fold change

CO-4055 (antisense eT*eT*eG*eA*eA*e[5mC]*e[5mC]*eT*eT*eT*eA*eG*eA*eA*eA*eA*eT*e[5mC]*eG*eT)
ABCB11 mRNA FC (5 μM ASO vs. UNT): 1.287 fold change

CO-4056 (antisense eG*e[5mC]*eT*eT*eA*eT*eT*eT*eG*eA*e[5mC]*eT*e[5mC]*eA*eA*eG*eA*e[5mC]*e[5mC]*eT)
ABCB11 mRNA FC (5 μM ASO vs. UNT): 1.115 fold change

CO-4057 (antisense e[5mC]*eA*eG*e[5mC]*eA*e[5mC]*eA*eA*eA*eT*eA*eT*eA*eT*eT*eG*eG*eA*eG*eG)
ABCB11 mRNA FC (5 μM ASO vs. UNT): 1.245 fold change

CO-4058 (antisense eG*eA*eT*eT*e[5mC]*eA*e[5mC]*eA*eA*eG*eA*eA*eG*eG*eG*eA*eG*eA*eG*eG)
ABCB11 mRNA FC (5 μM ASO vs. UNT): 1.134 fold change

CO-4059 (antisense eG*eT*eA*eA*eG*e[5mC]*eT*e[5mC]*eA*eG*eG*e[5mC]*eAeA*eA*eG*eG*eA*eG*eA)
ABCB11 mRNA FC (5 μM ASO vs. UNT): 1.186 fold change

CO-4060 (antisense eG*eG*eA*eGeT*eGeA*eGeA*eG*eG*e[5mC]*eA*eT*eT*eT*eA*eG*eG*eG)
ABCB11 mRNA FC (5 μM ASO vs. UNT): 1.117 fold change

CO-4061 (antisense eA*eT*eT*e[5mC]*eA*eT*eT*eG*e[5mC]*eT*eG*eA*eA*eG*eG*e[5mC]*eT*eG*eG*eA)
ABCB11 mRNA FC (5 μM ASO vs. UNT): 1.233 fold change

CO-4062 (antisense eG*eA*e[5mC]*e[5mC]*eA*eA*eT*eG*eT*eT*eG*e[5mC]*e[5mC]*eT*eA*eT*eT*eA*eT*eT)
ABCB11 mRNA FC (5 μM ASO vs. UNT): 1.108 fold change

CO-4063 (antisense eG*e[5mC]*eA*e[5mC]*e[5mC]*e[5mC]*eA*eA*e[5mC]*e[5mC]*eA*eA*eG*eT*e[5mC]*eT*eT*eG*eA*e[5mC])
ABCB11 mRNA FC (5 μM ASO vs. UNT): 1.457 fold change

CO-4480 (antisense e[5mC]*e[5mC]*eT*eG*eA*eG*eA*eT*eT*eG*eA*eG*e[5mC]*eT*eA*eT*eA*e[5mC]*eT*eG)
ABCB11 mRNA FC (5 μM ASO vs. UNT): 0.931 fold change

CO-4481 (antisense e[5mC]*eA*eT*e[5mC]*eT*e[5mC]*eT*eG*eT*eG*eA*eA*eT*e[5mC]*eG*e[5mC]*eT*eA*eG*eT)
ABCB11 mRNA FC (5 μM ASO vs. UNT): 1.18 fold change

CO-4482 (antisense eT*eA*eA*e[5mC]*eT*eG*eG*eG*eA*eG*eT*eA*eT*eA*eG*eA*eG*eG*eA*e[5mC])
ABCB11 mRNA FC (5 μM ASO vs. UNT): 1.001 fold change

CO-4483 (antisense eT*e[5mC]*eA*e[5mC]*eA*eA*eA*eT*eA*eG*eA*eT*eT*eG*eA*eG*eG*eG*eT*e[5mC])
ABCB11 mRNA FC (5 μM ASO vs. UNT): 1.041 fold change

CO-4484 (antisense eG*e[5mC]*eT*eA*eA*eT*e[5mC]*e[5mC]*eA*eA*e[5mC]*e[5mC]*eA*e[5mC]*eT*eT*e[5mC]*eA*eA*e[5mC])
ABCB11 mRNA FC (5 μM ASO vs. UNT): 1.113 fold change

CO-4485 (antisense eG*eT*e[5mC]*eA*eA*eG*eA*eT*e[5mC]*e[5mC]*e[5mC]*e[5mC]*eG*eA*eA*eG*eT*eT*eG*eA)
ABCB11 mRNA FC (5 μM ASO vs. UNT): 1.194 fold change

CO-4486 (antisense eG*eG*eA*e[5mC]*eT*eG*e[5mC]*eG*eT*eG*eA*e[5mC]*eT*e[5mC]*eA*eG*eG*eT*eT*eA)
ABCB11 mRNA FC (5 μM ASO vs. UNT): 1.151 fold change

CO-4487 (antisense eG*e[5mC]*eA*eA*eG*eG*eT*e[5mC]*e[5mC]*eA*eG*eG*eG*eT*eG*eT*eA*eT*eT*e[5mC])
ABCB11 mRNA FC (5 μM ASO vs. UNT): 1.052 fold change

— patent US20250320496A1, “MODULATION OF ABCB11 GENE TRANSCRIPTION USING ANTISENSE OLIGONUCLEOTIDES TARGETING REGULATORY RNAS” (CAMP4 Therapeutics Corporation, priority 2022, published 2025)
